The text below walks through data of US8846935B2, “Indazoles” (GlaxoSmithKline LLC, priority 2010, dated 2014).

What is called IC50 is the concentration at which inhibition is half-maximal. Low readings indicate greater potency in that assay, high ones weaker potency in that assay.

The target in the assay is T1, EZH2 within the PRC2 complex (Homo sapiens, UniProt Q15910).
T1 construct: FLAG; made in house; host or cells: Sf9 cells
T1 sequence (Q15910 whole entry): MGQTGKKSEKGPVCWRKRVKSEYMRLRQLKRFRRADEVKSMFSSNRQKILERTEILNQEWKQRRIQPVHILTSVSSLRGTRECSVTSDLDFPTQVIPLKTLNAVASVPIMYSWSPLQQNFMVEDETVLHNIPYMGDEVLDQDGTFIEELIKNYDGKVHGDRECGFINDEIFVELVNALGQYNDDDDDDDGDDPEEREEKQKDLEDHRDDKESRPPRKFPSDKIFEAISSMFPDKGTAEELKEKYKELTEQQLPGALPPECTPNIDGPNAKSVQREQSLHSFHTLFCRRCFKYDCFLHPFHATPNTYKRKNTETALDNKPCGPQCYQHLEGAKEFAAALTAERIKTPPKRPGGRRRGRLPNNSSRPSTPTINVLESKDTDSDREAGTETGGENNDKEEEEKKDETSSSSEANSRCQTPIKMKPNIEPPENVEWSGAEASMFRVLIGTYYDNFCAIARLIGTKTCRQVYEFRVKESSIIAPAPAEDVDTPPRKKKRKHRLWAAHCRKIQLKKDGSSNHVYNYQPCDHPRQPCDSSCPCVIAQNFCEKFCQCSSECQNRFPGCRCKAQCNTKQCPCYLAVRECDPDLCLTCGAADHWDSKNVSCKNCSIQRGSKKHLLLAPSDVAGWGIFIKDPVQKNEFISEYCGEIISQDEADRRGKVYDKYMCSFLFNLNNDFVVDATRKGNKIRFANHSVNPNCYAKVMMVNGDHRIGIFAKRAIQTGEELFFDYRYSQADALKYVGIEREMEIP
T1 sequence (O75530 whole entry partner): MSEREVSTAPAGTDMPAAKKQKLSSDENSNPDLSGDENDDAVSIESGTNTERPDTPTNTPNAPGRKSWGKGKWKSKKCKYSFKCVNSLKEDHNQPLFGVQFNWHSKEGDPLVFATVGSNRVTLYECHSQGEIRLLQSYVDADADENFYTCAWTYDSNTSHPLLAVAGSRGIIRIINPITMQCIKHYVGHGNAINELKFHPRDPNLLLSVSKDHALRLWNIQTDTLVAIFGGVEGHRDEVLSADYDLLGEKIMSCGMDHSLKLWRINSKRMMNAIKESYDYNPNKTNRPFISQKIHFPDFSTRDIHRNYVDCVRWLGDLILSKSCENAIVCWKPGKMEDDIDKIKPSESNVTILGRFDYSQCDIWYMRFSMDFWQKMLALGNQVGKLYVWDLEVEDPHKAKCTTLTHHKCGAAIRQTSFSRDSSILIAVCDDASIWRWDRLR
T1 sequence (Q15022 whole entry partner): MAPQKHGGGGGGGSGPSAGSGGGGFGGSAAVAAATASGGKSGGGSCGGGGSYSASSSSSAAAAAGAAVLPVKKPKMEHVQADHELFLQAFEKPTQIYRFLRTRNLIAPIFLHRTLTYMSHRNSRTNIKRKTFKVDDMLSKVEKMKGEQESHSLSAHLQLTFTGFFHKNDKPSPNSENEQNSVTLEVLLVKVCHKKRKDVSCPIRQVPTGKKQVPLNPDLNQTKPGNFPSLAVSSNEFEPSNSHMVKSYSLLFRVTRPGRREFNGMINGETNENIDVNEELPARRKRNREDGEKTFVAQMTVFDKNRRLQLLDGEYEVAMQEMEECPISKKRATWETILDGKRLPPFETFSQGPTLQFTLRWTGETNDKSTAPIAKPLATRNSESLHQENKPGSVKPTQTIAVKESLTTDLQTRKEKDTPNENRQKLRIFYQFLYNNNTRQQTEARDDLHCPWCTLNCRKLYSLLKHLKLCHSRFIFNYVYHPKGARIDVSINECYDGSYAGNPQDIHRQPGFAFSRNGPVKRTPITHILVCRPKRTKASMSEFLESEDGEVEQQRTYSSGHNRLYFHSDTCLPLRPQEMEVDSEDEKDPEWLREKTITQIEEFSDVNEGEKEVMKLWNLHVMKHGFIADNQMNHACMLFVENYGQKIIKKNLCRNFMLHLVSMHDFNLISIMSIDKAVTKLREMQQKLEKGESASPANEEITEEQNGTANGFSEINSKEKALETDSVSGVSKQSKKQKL
T1 sequence (Q09028 whole entry partner): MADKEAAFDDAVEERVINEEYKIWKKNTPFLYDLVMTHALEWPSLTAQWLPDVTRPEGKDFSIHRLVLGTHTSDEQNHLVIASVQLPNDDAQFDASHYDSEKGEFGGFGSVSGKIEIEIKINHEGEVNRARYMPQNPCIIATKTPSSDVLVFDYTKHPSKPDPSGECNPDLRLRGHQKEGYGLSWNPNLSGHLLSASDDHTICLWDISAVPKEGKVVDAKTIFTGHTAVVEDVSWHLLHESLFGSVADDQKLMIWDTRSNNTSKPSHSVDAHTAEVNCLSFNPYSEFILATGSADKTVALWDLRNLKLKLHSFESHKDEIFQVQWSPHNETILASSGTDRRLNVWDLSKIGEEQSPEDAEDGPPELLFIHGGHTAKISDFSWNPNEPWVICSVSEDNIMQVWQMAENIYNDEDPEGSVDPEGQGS
T1 sequence (Q6ZN18 whole entry partner): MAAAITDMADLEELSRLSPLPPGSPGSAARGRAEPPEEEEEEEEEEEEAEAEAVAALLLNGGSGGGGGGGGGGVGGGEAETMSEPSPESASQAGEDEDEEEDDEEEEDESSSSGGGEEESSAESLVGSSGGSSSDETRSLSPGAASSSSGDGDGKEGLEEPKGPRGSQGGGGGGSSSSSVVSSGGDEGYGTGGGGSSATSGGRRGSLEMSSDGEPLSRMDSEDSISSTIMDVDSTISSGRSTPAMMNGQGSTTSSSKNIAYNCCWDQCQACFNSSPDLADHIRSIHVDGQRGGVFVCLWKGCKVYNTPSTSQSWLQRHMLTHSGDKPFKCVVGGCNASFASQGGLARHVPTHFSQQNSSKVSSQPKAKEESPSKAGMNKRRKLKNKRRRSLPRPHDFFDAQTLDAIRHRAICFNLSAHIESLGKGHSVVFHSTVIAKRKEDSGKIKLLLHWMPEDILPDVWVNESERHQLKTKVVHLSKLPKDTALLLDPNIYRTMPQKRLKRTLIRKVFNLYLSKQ
Description: EZH2 methyltransferase scintillation proximity assay (SPA). The class given is biochemical. The settings on record: methyltransferase activity of EZH2 in human PRC2 complex, 3H-SAM, HeLa mononucleosomes. As to the method: Compounds contained herein were evaluated for their ability to inhibit the methyltransferase activity of EZH2 within the PRC2 complex. Human PRC2 complex was prepared by co-expressing each of the 5 member proteins (FLAG-EZH2, EED, SUZ12, RbAp48, AEBP2) in Sf9 cells followed by co-purification. Enzyme activity was measured in a scintillation proximity assay (SPA) where a tritiated methyl group is transferred from 3H-SAM to a lysine residue on Histone H3 of a mononucleosome, purified from HeLa cells. Mononucleosomes were captured on SPA beads and the resulting signal is read on a ViewLux plate reader.
Part A. Compound Preparation
• 1. Prepare 10 mM stock of compounds from solid in 100% DMSO. • 2. Set up an 11-point serial dilution (1:3 dilution, top concentration 10 mM) in 100% DMSO for each test compound in a 384 well plate leaving columns 6 and 18 for DMSO controls. • 3. Dispense 100 nL of compound from the dilution plate into reaction plates (Grenier Bio-One, 384-well, Cat#784075). Part B. Reagent Preparation Prepare the following solutions: • 1. 50 mM Tris-HCl, pH 8: Per 1 L of base buffer, combine 1 M Tris-HCl, pH 8 (50 mL) and distilled water (950 mL). • 2. 1× Assay Buffer: Per 10 mL of 1× Assay Buffer, combine 50 mM Tris-HCl, pH 8 (9958 uL), 1 M MgCl2 (20 uL), 2 M DTT (20 uL), and 10% Tween-20 (2 uL) to provide a final concentration of 50 mM Tris-HCl, pH 8, 2 mM MgCl2, 4 mM DTT, 0.002% Tween-20. • 3. 2× Enzyme Solution: Per 10 mL of 2× Enzyme Solution, combine 1× Assay Buffer and PRC2 complex to provide a final enzyme concentration of 10 nM. • 4. SPA Bead Suspension: Per 1 mL of SPA Bead Suspension, combine PS-PEI coated LEADSeeker beads (40 mg) and ddH2O (1 mL) to provide a final concentration of 40 mg/mL. • 5. 2× Substrate Solution: Per 10 mL of 2× Substrate Solution, combine 1× Assay Buffer (9728.55 uL), 800 ug/mL mononucleosomes (125 uL), 1 mM cold SAM (4 uL), and 7.02 uM 3H-SAM (142.45 uL; 0.55 mCi/mL) to provide a final concentration of 5 ug/mL nucleosomes, 0.2 uM cold SAM, and 0.05 uM 3H-SAM. • 6. 2.67× Quench/Bead Mixture: Per 10 mL of 2.67× Quench/Bead Mixture, combine ddH2O (9358 uL), 10 mM cold SAM (267 uL), 40 mg/mL Bead Suspension (375 uL) to provide a final concentration of 100 uM cold SAM and 0.5 mg/mL SPA beads. Part C. Assay Reaction in 384-well Grenier Bio-One Plates Compound Addition • 1. Dispense […] of 100× Compound to test wells (as noted above). • 2. Dispense […] of 100% DMSO to columns 6 & 18 for high and low controls, respectively. Assay • 1. Dispense 5 uL/well of 1× Assay Buffer to column 18 (low control reactions). • 2. Dispense 5 uL/well of 2× Enzyme Solution to columns 1-17, 19-24. • 3. Spin assay plates for ˜1 minute at 500 rpm. • 4. Stack the assay plates, covering the top plate. • 5. Incubate the compound/DMSO with the enzyme for 30 minutes at room temperature. • 6. Dispense 5 uL/well of 2× Substrate Solution to columns 1-24. • 7. Spin assay plates for ˜1 minute at 500 rpm. • 8. Stack the assay plates, covering the top plate. • 9. Incubate the assay plates at room temperature for 1 hour. Quench/Bead Addition • 1. Dispense 5 uL/well of the 3× Quench/Bead Mixture to columns 1-24. • 2. Seal the top of each assay plate with adhesive TopSeal. • 3. Spin assay plates for ˜1 minute at 500 rpm. • 4. Equilibrate the plates for >20 min. Read Plates • 1. Read the assay plates on the Viewlux Plate Reader utilizing the 613 nm emission filter with a 300 s read time. Reagent addition can be done manually or with automated liquid handler. *The final DMSO concentration in this assay is 1%. *The positive control is in column 6; negative control is in column 18. *Final starting concentration of compounds is 100 μM. Part D. Data Analysis
Percent inhibition was calculated relative to the DMSO control for each compound concentration and the resulting values were fit using standard IC50 fitting parameters within the ABASE data fitting software package.
In general terms: SPA uses beads or plates that emit light when radiolabelled molecules are held near them.
On to “1-isopropyl-N-((6-methyl-2-oxo-4-propyl-1,2-dihydropyridin-3-yl)methyl)-6-(thiophen-3-yl)-1H-indazole-4-carboxamide [Example 32]”, for which it took 25 nM to reach half-maximal inhibition (IC50).

`CCCc1cc(C)[nH]c(=O)c1CNC(=O)c1cc(Cl)cc2c1cnn2C(C)C` [Example 1, 6-chloro-1-(1-methylethyl)-N-[(6-methyl-2-oxo-4-propyl-1,2-dihydro-3-pyridinyl)methyl]-1H-indazole-4-carboxamide] displayed an IC50 of 32 nM.

`Cc1cc(C)c(CNC(=O)c2cc(Br)cc3c2cnn3C(C)C)c(=O)[nH]1` [Example 3, 6-Bromo-N-[(4,6-dimethyl-2-oxo-1,2-dihydro-3-pyridinyl)methyl]-1-(1-methylethyl)-1H-indazole-4-carboxamide] registered an IC50 of 158 nM.

Consider `CCc1cc(C)[nH]c(=O)c1CNC(=O)c1cc(Br)cc2c1cnn2C(C)C` [Example 4, 6-bromo-N-((4-ethyl-6-methyl-2-oxo-1,2-dihydropyridin-3-yl)methyl)-1-isopropyl-1H-indazole-4-carboxamide], for which half-maximal inhibition (IC50) required 25 nM.

Compound `Cc1cc(Cc2ccccc2)c(CNC(=O)c2cc(Br)cc3c2cnn3C(C)C)c(=O)[nH]1` [Example 5, 6-bromo-1-(1-methylethyl)-N-{[6-methyl-2-oxo-4-(phenylmethyl)-1,2-dihydro-3-pyridinyl]methyl}-1H-indazole-4-carboxamide] gave an IC50 of 8 nM.

The compound `Cc1cc(Cc2ccccc2)c(CNC(=O)c2cccc3c2cnn3C(C)C)c(=O)[nH]1` [Example 7, 1-(1-methylethyl)-N-{[6-methyl-2-oxo-4-(phenylmethyl)-1,2-dihydro-3-pyridinyl]methyl}-1H-indazole-4-carboxamide] returned an IC50 of 40 nM.

As for `Cc1cc(C)c(CNC(=O)c2cc(-c3ccc(OCCN(C)C)cc3)cc3c2cnn3C(C)C)c(=O)[nH]1` [Example 8, N-((4,6-dimethyl-2-oxo-1,2-dihydropyridin-3-yl)methyl)-6-(4-(2-(dimethylamino)ethoxy)phenyl)-1-isopropyl-1H-indazole-4-carboxamide], the IC50 amounted to 10 nM.

`Cc1cc(C)c(CNC(=O)c2cc(-c3ccc(N4CCNCC4)cc3)cc3c2cnn3C(C)C)c(=O)[nH]1` [Example 9, N-[(4,6-dimethyl-2-oxo-1,2-dihydro-3-pyridinyl)methyl]-1-(1-methylethyl)-6-[4-(1-piperazinyl)phenyl]-1H-indazole-4-carboxamide] returned an IC50 of 16 nM.

`Cc1cc(C)c(CNC(=O)c2cc(-c3ccc(N4CCNCC4)nc3)cc3c2cnn3C(C)C)c(=O)[nH]1` [Example 10, N-[(4,6-dimethyl-2-oxo-1,2-dihydro-3-pyridinyl)methyl]-1-(1-methylethyl)-6-[6-(1-piperazinyl)-3-pyridinyl]-1H-indazole-4-carboxamide] yielded a concentration for half-maximal inhibition (IC50) of 13 nM.

On to `Cc1cc(C(C)C)c(CNC(=O)c2cc(-c3ccc(N4CCNCC4)nc3)cc3c2cnn3C(C)C)c(=O)[nH]1` [Example 12, 1-isopropyl-N-((4-isopropyl-6-methyl-2-oxo-1,2-dihydropyridin-3-yl)methyl)-6-(6-(piperazin-1-yl)pyridin-3-yl)-1H-indazole-4-carboxamide], for which the midpoint of inhibition, the IC50, lay at 4 nM.

Consider `Cc1cc(C)c(CNC(=O)c2cc(-c3cnn(C)c3)cc3c2cnn3C(C)C)c(=O)[nH]1` [Example 13, N-((4,6-dimethyl-2-oxo-1,2-dihydropyridin-3-yl)methyl)-1-isopropyl-6-(1-methyl-1H-pyrazol-4-yl)-1H-indazole-4-carboxamide], for which the midpoint of inhibition, the IC50, lay at 126 nM.

As for `CCc1cc(C)[nH]c(=O)c1CNC(=O)c1cc(-c2ccc(CN(C)C)cc2)cc2c1cnn2C(C)C` [Example 14, 6-(4-((dimethylamino)methyl)phenyl)-N-((4-ethyl-6-methyl-2-oxo-1,2-dihydropyridin-3-yl)methyl)-1-isopropyl-1H-indazole-4-carboxamide], the midpoint of inhibition, the IC50, lay at 5 nM.

With `CCCc1cc(C)[nH]c(=O)c1CNC(=O)c1cc(-c2ccc(N3CCNCC3)nc2)cc2c1cnn2C(C)C` [Example 15, 1-(1-methylethyl)-N-[(6-methyl-2-oxo-4-propyl-1,2-dihydro-3-pyridinyl)methyl]-6-[6-(1-piperazinyl)-3-pyridinyl]-1H-indazole-4-carboxamide], half-maximal inhibition (IC50) was put at 2 nM.

With `CCc1cc(C)[nH]c(=O)c1CNC(=O)c1cc(-c2ccc(N3CCN(C)CC3)nc2)cc2c1cnn2C(C)C` [Example 16, N-((4-ethyl-6-methyl-2-oxo-1,2-dihydropyridin-3-yl)methyl)-1-isopropyl-6-(6-(4-methylpiperazin-1-yl)pyridin-3-yl)-1H-indazole-4-carboxamide], the 50% inhibitory concentration (IC50) was 3 nM.

As for `CCCc1cc(C)[nH]c(=O)c1CNC(=O)c1cc(-c2cnc(C)nc2)cc2c1cnn2C(C)C` [Example 17, 1-isopropyl-N-((6-methyl-2-oxo-4-propyl-1,2-dihydropyridin-3-yl)methyl)-6-(2-methylpyrimidin-5-yl)-1H-indazole-4-carboxamide], the IC50 turned out to be 8 nM.

`CCCc1cc(C)[nH]c(=O)c1CNC(=O)c1cc(-c2ccc(N(C)C)nc2)cc2c1cnn2C(C)C` [Example 18, 6-[6-(dimethylamino)-3-pyridinyl]-1-(1-methylethyl)-N-[(6-methyl-2-oxo-4-propyl-1,2-dihydro-3-pyridinyl)methyl]-1H-indazole-4-carboxamide] had an IC50 of 10 nM.

In turn, `CCCc1cc(C)[nH]c(=O)c1CNC(=O)c1cc(-c2ccc(N3CCOCC3)nc2)cc2c1cnn2C(C)C` [Example 19, 1-(1-methylethyl)-N-[(6-methyl-2-oxo-4-propyl-1,2-dihydro-3-pyridinyl)methyl]-6-[6-(4-morpholinyl)-3-pyridinyl]-1H-indazole-4-carboxamide] gave a half-maximal inhibitory concentration (IC50) of 6 nM.

As to `CCCc1cc(C)[nH]c(=O)c1CNC(=O)c1cc(-c2cnc(N)nc2)cc2c1cnn2C(C)C` [Example 20, 6-(2-amino-5-pyrimidinyl)-1-(1-methylethyl)-N-[(6-methyl-2-oxo-4-propyl-1,2-dihydro-3-pyridinyl)methyl]-1H-indazole-4-carboxamide], the IC50 is 10 nM.

`CCCc1cc(C)[nH]c(=O)c1CNC(=O)c1cc(-c2ccc(N)nc2)cc2c1cnn2C(C)C` [Example 21, 6-(6-amino-3-pyridinyl)-1-(1-methylethyl)-N-[(6-methyl-2-oxo-4-propyl-1,2-dihydro-3-pyridinyl)methyl]-1H-indazole-4-carboxamide] registered an IC50 of 5 nM.

Compound `CCCc1cc(C)[nH]c(=O)c1CNC(=O)c1cc(-c2cncnc2)cc2c1cnn2C(C)C` [Example 22, 1-(1-methylethyl)-N-[(6-methyl-2-oxo-4-propyl-1,2-dihydro-3-pyridinyl)methyl]-6-(5-pyrimidinyl)-1H-indazole-4-carboxamide] yielded an IC50 of 20 nM.

As for `CCCc1cc(C)[nH]c(=O)c1CNC(=O)c1cc(-c2ccc(OC)nc2)cc2c1cnn2C(C)C` [Example 23, 1-(1-methylethyl)-N-[(6-methyl-2-oxo-4-propyl-1,2-dihydro-3-pyridinyl)methyl]-6-[6-(methyloxy)-3-pyridinyl]-1H-indazole-4-carboxamide], the IC50 was determined as 8 nM.
